This is an account of results in patent US4299830A, “1,5-Methano-1,4-benzodiazocines, intermediates therefor, and method of use and compositions thereof” (Sterling Drug Inc., priority 1980, dated 1981).

Data set [1] is described as follows: EDTA Antinociceptive Test. The class given is in vivo. Particulars: Cavia porcellus, sc, 0.5 h; subcutaneous, guinea pig, 30 minutes; read-out: subcutaneously effective dose (reduces the response score to 6 or less). On the procedure:
This is also a confirmatory evaluation of analgesic activity. The test animal is the guinea pig. A threshold intradermal dose of ethylenediaminetetraacetic acid (EDTA) which can reproducibly elicit a cumulative response score of 12-18 discrete episodes of jumping, rearing, running, vocalization and biting or scratching at the site of injection within 40 seconds after challenge is determined for each animal. Thirty minutes after the administration of saline or test compound to 6-7 animals per dose, each animal is again challenged with its own threshold dose of EDTA. An effective drug dose is considered to be one which reduces the response score to 6 or less.

Data set [2] in a line: Anti-acetylcholine Writhing Test. The class given is in vivo. Particulars: mice; for ED50: Mus musculus, read-out: ED50 (95% Confidence Limits); for ED50 / ED50 (95% Confidence Limits): expressed as free base. An excerpt:
This response has been called writhing.
On the technique in general: An intraperitoneal irritant provokes the stretching counted in writhing tests.

The next data set in a line: Anti-bradykinin Test. It is filed as in vivo. Particulars: rats, expressed as free base; for ED50: Rattus norvegicus, read-out: ED50 (95% Confidence Limits).
A short description of data set [3]: Anti-phenylquinone Writhing Test. The class given is in vivo. The conditions noted are these: Mus musculus, mice, expressed as free base, read-out: ED50 (95% Confidence Limits).
A short description of data set [4]: Tail-flick Antagonist Test against morphine. Particulars: Rattus norvegicus, read-out: AD50 (95% Confidence Limits).
The next data set in a line: Tail-flick Agonist Test. It is filed as in vivo. The conditions noted are these: doses up to 120 mg./kg. subcutaneously, rats.
The nature of data set [5]: Tail-flick Antagonist Test against phenazocine. Particulars: for ED50: Rattus norvegicus, read-out: AD50 (95% Confidence Limits); for antagonist response at 1 mg./kg.: 1 mg./kg. subcutaneous; for antagonist response at 10 mg./kg.: 10 mg./kg. subcutaneous.
The nature of data set [6]: Comparison in three of the foregoing tests with the compound lacking 9-amino. Particulars: relative to Gubitz compound.
Data set [7] is described as follows: Tail-flick Antagonist Test against meperidine. Particulars: Rattus norvegicus, read-out: AD50 (95% Confidence Limits).

In the case of `Nc1ccc2c(c1)N1CCN(CC3CC3)C(C2)C1` (racemic) [Example 1D, 4-cyclopropylmethyl-9-amino-3,4,5,6-tetrahydro-2H-1,5-methano-1,4-benzodiazocine], in data set [1], the minimal effective dose worked out at 1.25 mg/kg. The ED50 in data set [2] (po) turned out to be 5.9 mg/kg; in data set [2] (sc, subcutaneous), 3.2 mg/kg; in the data set “Anti-bradykinin Test” (sc, subcutaneous), 2.6 mg/kg; in “Anti-bradykinin Test” (oral) it was 5.4 mg/kg; in [3] (sc, subcutaneous), 1.8 mg/kg; in [3] (oral), 5.7 mg/kg. Also, the ED50 is 8.6 mg/kg in data set [4] (sc), 1.6 mg/kg in [5] (sc) and 3.3 mg/kg in [7] (sc). For the same compound, the “ED50 (95% Confidence Limits)” value in data set [2] (oral) was 5.9 (3.9-8.7) Mg./Kg; in data set [2] (subcutaneous), 3.2 (2.0-4.8) Mg./Kg; in the data set “Anti-bradykinin Test” (subcutaneous) it was 2.6 (1.5-4.1) Mg./Kg. The tail-flick agonist activity entry in “Tail-flick Agonist Test” is “at most inactive or questionably active”. The “AD50 (95% Confidence Limits)” value in [5] (subcutaneous, against phenazocine, expressed as free base) was 1.6 (1.0-2.6) mg./kg. Moreover, the “times more potent than the compound of Formula A (lacking 9-amino)” value in [6] was “four to ten”.
For the compound `c1ccc2c(c1)CC1CN2CCN1CC1CC1` (stereo not shown) [Compound of Formula A*, 4-cyclopropylmethyl-3,4,5,6-tetrahydro-2H-1,5-methano-1,4-benzodiazocine, reference compound], the ED50 in data set [2] (po) amounted to 32 mg/kg; in data set [2] (sc, subcutaneous), 12 mg/kg; in “Anti-bradykinin Test” (sc, subcutaneous), 21 mg/kg; in [5] (sc), 34 mg/kg.
Consider `CCS(=O)(=O)O.CCS(=O)(=O)O.Nc1ccc2c(c1)N1CCN(CC3CC3)C(C2)C1` (stereo not shown) [Example 1E, 4-cyclopropylmethyl-9-amino-3,4,5,6-tetrahydro-2H-1,5-methano-1,4-benzodiazocine diethanesulfonate], for which the ED50 came out at 3.7 mg/kg in data set [2] (sc, subcutaneous); 4.2 mg/kg in the data set “Anti-bradykinin Test” (oral); 13 mg/kg in data set [4] (po); 3.5 mg/kg in data set [5] (po); 4.8 mg/kg in data set [7] (po). The tail-flick agonist activity entry in “Tail-flick Agonist Test” was “at most inactive or questionably active”.
Consider `Nc1ccc2c(c1)N1CCN(CC3CC3)C(C2)C1` (stereo not shown) [Example 1J, levo-4-cyclopropylmethyl-9-3,4,5,6-tetrahydro-2H-1,5-methano-1,4-benzodiazocine], for which the “response at 75 mg./kg. (highest dose tested)” value in data set [2] (75 mg./kg. subcutaneous) is 67%. In addition, the “ED50 (95% Confidence Limits)” value in data set [2] (subcutaneous) is 40 Mg./Kg. Besides, in [5] (against phenazocine), the “antagonist response at 1 mg./kg.” value is on record as 10% and the “antagonist response at 10 mg./kg.” value is recorded as 6%. For the same compound, in data set [5] (80 mg./kg. subcutaneous, against phenazocine), the “antagonist response at 80 mg./kg.” value is recorded as 25%.
As for `Nc1ccc2c(c1)N1CCN(CC3CC3)C(C2)C1` (stereo not shown) [Example 1K, dextro-4-cyclpropylmethyl-9-amino-3,4,5,6-tetrahydro-2H-1,5-methano-1,4-benzodiazocine], in data set [2] (subcutaneous), the “ED50 (95% Confidence Limits)” value is reported as 1.0 (0.62-2.0) Mg./Kg. The ED50 in [5] (sc) was 0.31 mg/kg.
With `C=CCN1CCN2CC1Cc1ccc(N)cc12` (stereo not shown) [Example 2E, 4-allyl-9-amino-3,4,5,6-tetrahydro-2H-1,5-methano-1,4-benzodiazocine diethanesulfonate hemihydrate], the ED50 is 30 mg/kg in [2] (sc, subcutaneous) and 1.6 mg/kg in data set [5] (sc).
Regarding `CCNc1ccc2c(c1)N1CCN(CC3CC3)C(C2)C1.Cl.Cl` (stereo not shown) [Example 3B, 4-cyclopropylmethyl-9-ethylamino-3,4,5,6-tetrahydro-2H-1,5-methano-1,4-benzodiazocine dihydrochloride], the ED50 worked out at 3.8 mg/kg in data set [2] (sc, subcutaneous); 3.4 mg/kg in the data set “Anti-bradykinin Test” (sc, subcutaneous); 4.4 mg/kg in [5] (sc). The tail-flick agonist activity result in “Tail-flick Agonist Test” was “at most inactive or questionably active”.
`CCCCNc1ccc2c(c1)N1CCN(CC3CC3)C(C2)C1` (stereo not shown) [Example 4B, 4-cyclopropylmethyl-9-butylamino-3,4,5,6-tetrahydro-2H-1,5-methano-1,4-benzodiazocine]: the ED50 in [2] (sc, subcutaneous) was 1.6 mg/kg. The ED50 in the data set “Anti-bradykinin Test” (sc, subcutaneous) amounted to 2.9 mg/kg. For the same compound, the tail-flick agonist activity result in “Tail-flick Agonist Test” was “at most inactive or questionably active”. In data set [5] (against phenazocine), the “antagonist response at 1 mg./kg.” value is 6% and the “antagonist response at 10 mg./kg.” value came out at 0%. In addition, in data set [5] (20 mg./kg. subcutaneous, against phenazocine), the “antagonist response at 20 mg./kg.” value is 34%. Moreover, in data set [5] (20 mg./kg. subcutaneous, rats), the “toxic effects at 20 mg./kg.” value is “toxic effects”.
